In patent publication EP4692094A1 (Beijing Konruns Pharmaceutical Co., Ltd., priority 2023, dated 2024):

Target: T1, KAT6A (Homo sapiens, UniProt Q92794)
T1 construct: purchased active motife (Active Motif) 81223
Assay: Enzymatic activity assay for KAT6A acetyltransferase (TR-FRET, acetylation of histone substrate H3)
Format: biochemical
Description: The acetylation effect of KAT6A on histone substrate H3 was determined using the TR-FRET (time-resolved fluorescence resonance energy transfer) method.
• 1) The compounds prepared in the examples of the present disclosure were each dissolved in dimethylsulfoxide to give solutions at a concentration of 10 mmol/L, and then the solutions were diluted to 0.2 mmol/L, i.e., 1 µL of the compound was added to 49 µL of DMSO, and 3-fold dilution was performed to give 10 concentrations. • 2) 50 nL of the test compounds (example compounds) were transferred to 384 reaction plates using Echo, two replicates for each compound, and the plates were centrifuged at a rotation speed of 1000 rpm for 1 min, the final concentration of dimethylsulfoxide (DMSO) being 0.5%. • 3) 2.5 µL of the reaction mixtures obtained in step 2 was added to the 384 reaction plates in step 2), and the plates were centrifuged at 1000 rpm for 1 min and incubated at 25 °C for 10 min. • 4) 2.5 µL of Bio-H3&AcCOA (acetyl-CoA) reaction solution was added to the 384 reaction plates in step 3), and the plates were centrifuged at a rotation speed of 1000 rpm for 1 min and incubated at 25 °C for 90 min. • 5) 5 µL of Eu-Ab& Ulight-SA detection solution was added to the 384 reaction plates in step 4), and the plates were centrifuged at 1000 rpm for 1 min and incubated at 25 °C for 60 min. • 6) The HTRF […] signals were read using a BMG high-throughput drug-screening multi-mode microplate reader.
The acetylation level of the histone H3 was analyzed by the GraphPad Prism 8 software. The reading of the negative control (0.5% DMSO wells) was set as 0% inhibition rate, and the reading of the positive control (wells with the highest concentration of the control compound) was set as 100% inhibition rate. The inhibition rates were calculated, and then IC50 values (half maximal inhibitory concentration) of test compounds were obtained by using a software nonlinear fitting formula; [formula]
Datapositive control: mean of positive control well values; Datanegative control: mean of negative control well values. Table 3. Enzymatic inhibitory activity of example compounds

T1 sequence (Q92794 whole entry): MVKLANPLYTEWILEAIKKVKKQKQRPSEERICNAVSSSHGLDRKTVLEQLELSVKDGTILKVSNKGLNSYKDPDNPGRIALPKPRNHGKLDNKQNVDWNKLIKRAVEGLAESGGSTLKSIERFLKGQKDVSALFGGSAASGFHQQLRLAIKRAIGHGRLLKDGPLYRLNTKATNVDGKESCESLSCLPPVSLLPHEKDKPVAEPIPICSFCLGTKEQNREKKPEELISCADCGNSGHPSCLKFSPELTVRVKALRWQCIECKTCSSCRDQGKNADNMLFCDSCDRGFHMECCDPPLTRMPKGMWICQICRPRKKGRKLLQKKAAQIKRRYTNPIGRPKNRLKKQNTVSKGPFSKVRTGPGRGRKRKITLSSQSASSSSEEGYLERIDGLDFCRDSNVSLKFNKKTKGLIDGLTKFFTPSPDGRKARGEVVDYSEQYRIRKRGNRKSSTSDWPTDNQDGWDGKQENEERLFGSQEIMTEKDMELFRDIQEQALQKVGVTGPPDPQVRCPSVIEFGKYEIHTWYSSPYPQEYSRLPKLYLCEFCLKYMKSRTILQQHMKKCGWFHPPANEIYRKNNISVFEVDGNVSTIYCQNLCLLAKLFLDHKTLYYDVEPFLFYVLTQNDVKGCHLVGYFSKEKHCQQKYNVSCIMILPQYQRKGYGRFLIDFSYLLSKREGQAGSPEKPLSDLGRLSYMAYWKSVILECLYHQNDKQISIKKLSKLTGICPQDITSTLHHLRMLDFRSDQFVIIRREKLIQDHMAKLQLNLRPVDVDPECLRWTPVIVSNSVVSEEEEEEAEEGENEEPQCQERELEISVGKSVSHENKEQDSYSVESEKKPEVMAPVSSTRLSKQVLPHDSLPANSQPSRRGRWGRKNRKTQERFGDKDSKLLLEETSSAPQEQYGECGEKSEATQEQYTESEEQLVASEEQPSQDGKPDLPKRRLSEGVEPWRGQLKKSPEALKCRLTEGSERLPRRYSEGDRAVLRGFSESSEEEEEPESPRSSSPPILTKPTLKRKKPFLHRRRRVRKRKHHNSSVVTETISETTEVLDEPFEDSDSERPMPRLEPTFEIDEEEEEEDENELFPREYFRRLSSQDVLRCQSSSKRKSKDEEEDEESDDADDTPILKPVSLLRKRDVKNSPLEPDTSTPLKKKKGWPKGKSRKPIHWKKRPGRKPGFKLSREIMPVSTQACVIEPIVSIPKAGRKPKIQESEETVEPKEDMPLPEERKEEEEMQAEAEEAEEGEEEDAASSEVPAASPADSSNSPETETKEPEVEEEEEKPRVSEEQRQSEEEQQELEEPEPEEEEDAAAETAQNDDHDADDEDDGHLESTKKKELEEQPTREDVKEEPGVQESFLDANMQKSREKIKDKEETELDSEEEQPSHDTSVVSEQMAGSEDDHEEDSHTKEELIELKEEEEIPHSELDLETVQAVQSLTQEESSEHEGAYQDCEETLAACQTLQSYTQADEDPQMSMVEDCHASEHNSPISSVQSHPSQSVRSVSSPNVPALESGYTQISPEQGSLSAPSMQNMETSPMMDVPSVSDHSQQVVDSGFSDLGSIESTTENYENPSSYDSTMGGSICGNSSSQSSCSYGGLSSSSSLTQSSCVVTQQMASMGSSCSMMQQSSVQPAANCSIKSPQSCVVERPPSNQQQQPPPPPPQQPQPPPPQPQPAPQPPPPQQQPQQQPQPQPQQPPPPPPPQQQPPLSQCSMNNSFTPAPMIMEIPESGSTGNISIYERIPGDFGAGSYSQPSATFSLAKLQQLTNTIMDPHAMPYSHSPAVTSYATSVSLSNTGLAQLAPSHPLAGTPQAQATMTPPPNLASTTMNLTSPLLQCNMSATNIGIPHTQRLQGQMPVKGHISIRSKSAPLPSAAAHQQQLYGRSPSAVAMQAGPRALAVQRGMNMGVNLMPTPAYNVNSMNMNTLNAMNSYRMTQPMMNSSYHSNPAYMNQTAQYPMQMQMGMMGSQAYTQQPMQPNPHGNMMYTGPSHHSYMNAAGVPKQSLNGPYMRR

COc1cc2c(cc1S(=O)(=O)Nc1noc3cc(Cn4cccn4)nc(OC)c13)CCC2 [Example 70, N-(6-((1H-Pyrazol-1-yl)methyl)-4-methoxyisoxazolo[4,5-c]pyridin-3-yl)-6-methoxy-2,3-dihydro-1H-indene-5-sulfonamide] was tested. Which IC50 did it give?
The IC50 was 0.85 nM.

With COc1ccc2ccoc2c1S(=O)(=O)Nc1noc2cc(Cn3ccc(C)n3)nc(OC)c12 [Example 71, 6-Methoxy-N-(4-methoxy-6-((3-methyl-1H-pyrazol-1-yl)methyl)isoxazolo[4,5-c]pyridin-3-yl)benzofuran-7-sulfonamide] as the compound, how does the IC50 read?
Its IC50 is 4.49 nM.

For COc1ccc(S(=O)(=O)Nc2noc3cc(Cn4cccn4)nc(OC)c23)c2c1CCO2 [Example 72, N-(6-((1H-Pyrazol-1-yl)methyl)-4-methoxyisoxazolo[4,5-c]pyridin-3-yl)-4-methoxy-2,3-dihydrobenzofuran-7-sulfonamide], which IC50 is on record?
Its IC50 is 5.1 nM.

How did the IC50 turn out when COc1ccc2c(c1S(=O)(=O)Nc1noc3cc(Cn4cccn4)nc(OC)c13)OCCO2 [Example 73, N-(6-((1H-Pyrazol-1-yl)methyl)-4-methoxyisoxazolo[4,5-c]pyridin-3-yl)-6-methoxy-2,3-dihydrobenzo[b][1,4]dioxine-5-sulfonamide] was run?
The IC50 was 0.97 nM.

How did the IC50 turn out when COc1ccc2c(c1S(=O)(=O)Nc1noc3cc(Cn4cccn4)nc(OC)c13)OC(C)(C)O2 [Example 74, N-(6-((1H-Pyrazol-1-yl)methyl)-4-methoxyisoxazolo[4,5-c]pyridin-3-yl)-5-methoxy-2,2-dimethyl-1,3-benzodioxolane-4-sulfonamide] was run?
The IC50 was 1.77 nM.

For COc1ccc2c(c1S(=O)(=O)Nc1noc3cc(Cn4cccn4)nc(OC)c13)CCC2 [Example 77, N-(6-((1H-Pyrazol-1-yl)methyl)-4-methoxyisoxazolo[4,5-c]pyridin-3-yl)-5-methoxy-2,3-dihydro-1H-indene-4-sulfonamide], which IC50 is on record?
The IC50 was 1.91 nM.

For COc1ccc2occ(S(=O)(=O)Nc3noc4cc(Cn5cccn5)nc(OC)c34)c2c1 [Example 78, N-(6-((1H-Pyrazol-1-yl)methyl)-4-methoxyisoxazolo[4,5-c]pyridin-3-yl)-5-methoxybenzofuran-3-sulfonamide], which IC50 is on record?
Its IC50 is 7.97 nM.

For COc1ccc2ccoc2c1S(=O)(=O)Nc1noc2cc(Cn3cc(C)cn3)nc(OC)c12 [Example 83, 6-Methoxy-N-(4-methoxy-6-((4-methyl-1H-pyrazol-1-yl)methyl)isoxazolo[4,5-c]pyridin-3-yl)benzofuran-7-sulfonamide], which IC50 is on record?
Its IC50 is 4.12 nM.

How did the IC50 turn out when COc1cc2c(c(S(=O)(=O)Nc3noc4cc(Cn5cccn5)nc(OC)c34)c1)OCCC2 [Example 84, N-(6-((1H-Pyrazol-1-yl)methyl)-4-methoxyisoxazolo[4,5-c]pyridin-3-yl)-6-methoxy-3,4-dihydro-1H-benzopyran-8-sulfonamide] was run?
Its IC50 is 1.21 nM.

Which IC50 does the source give for COc1c(S(=O)(=O)Nc2noc3cc(Cn4cccn4)nc(OC)c23)ccc2ccoc12 [Example 86, N-(6-((1H-Pyrazol-1-yl)methyl)-4-methoxyisoxazolo[4,5-c]pyridin-3-yl)-7-methoxybenzofuran-6-sulfonamide] here?
Its IC50 is 10 nM.

COc1c(S(=O)(=O)Nc2noc3cc(Cn4cccn4)nc(OC)c23)ccc2c1OCO2 [Example 87, N-(6-((1H-Pyrazol-1-yl)methyl)-4-methoxyisoxazolo[4,5-c]pyridin-3-yl)-4-methoxy-1,3-benzodioxole-5-sulfonamide] was tested. Which IC50 did it give?
Its IC50 is 2.67 nM.

How did the IC50 turn out when COc1nc(Cn2cccn2)cc2onc(NS(=O)(=O)c3ccc4c(c3)OC(F)(F)O4)c12 [Example 89, N-(6-((1H-Pyrazol-1-yl)methyl)-4-methoxyisoxazolo[4,5-c]pyridin-3-yl)-2,2-difluoro-1,3-benzodioxole-5-sulfonamide] was run?
Its IC50 is 16.8 nM.

COc1nc(Cn2cccn2)cc2onc(NS(=O)(=O)c3ccc(C#CC4CC4)c4ccoc34)c12 [Example 90, N-(6-((1H-Pyrazol-1-yl)methyl)-4-methoxyisoxazolo[4,5-c]pyridin-3-yl)-4-(cyclopropylethynyl)benzofuran-7-sulfonamide] was tested. Which IC50 did it give?
The IC50 was 7.18 nM.

COc1cc2c(cc1S(=O)(=O)Nc1noc3cc(C(F)(F)n4cccn4)nc(OC)c13)CCCC2 [Example 91, N-(6-(Difluoro(1H-pyrazol-1-yl)methyl)-4-methoxyisoxazolo[4,5-c]pyridin-3-yl)-3-methoxy-5,6,7,8-tetrahydronaphthalene-2-sulfonamide] was tested. Which IC50 did it give?
Its IC50 is 17.6 nM.

Which IC50 does the source give for COc1ccc(S(=O)(=O)Nc2noc3cc(Cn4cccn4)nc(OC)c23)c2c1C=CCO2 [Example 94, N-(6-((1H-Pyrazol-1-yl)methyl)-4-methoxyisoxazolo[4,5-c]pyridin-3-yl)-5-methoxy-2H-benzopyran-8-sulfonamide] here?
Its IC50 is 2.37 nM.

With COc1ccc(S(=O)(=O)Nc2noc3cc(Cn4cccn4)nc(OC)c23)c2c1CCCO2 [Example 95, N-(6-((1H-Pyrazol-1-yl)methyl)-4-methoxyisoxazolo[4,5-c]pyridin-3-yl)-5-methoxy-3,4-dihydro-1H-benzopyran-8-sulfonamide] as the compound, how does the IC50 read?
Its IC50 is 1.63 nM.

With C#Cc1ccc(S(=O)(=O)Nc2noc3cc(Cn4cccn4)nc(OC)c23)c2occc12 [Example 96, N-(6-((1H-pyrazol-1-yl)methyl)-4-methoxyisoxazolo[4,5-c]pyridin-3-yl)-4-ethynyl-benzofuran-7-sulfonamide] as the compound, how does the IC50 read?
Its IC50 is 6.67 nM.

COc1cc2c(c(OC)c1S(=O)(=O)Nc1noc3cc(Cn4cccn4)nc(OC)c13)CCO2 [Example 97, N-(6-((1H-pyrazol-1-yl)methyl)-4-methoxyisoxazolo[4,5-c]pyridin-3-yl)-4,6-dimethoxy-2,3-dihydrobenzofuran-5-sulfonamide] was tested. Which IC50 did it give?
Its IC50 is 0.95 nM.

How did the IC50 turn out when COc1cc(OC)c(S(=O)(=O)Nc2noc3cc(Cn4cccn4)nc(OC)c23)c2c1CCO2 [Example 98, N-(6-((1H-pyrazol-1-yl)methyl)-4-methoxyisoxazolo[4,5-c]pyridin-3-yl)-4,6-dimethoxy-2,3-dihydrobenzofuran-7-sulfonamide] was run?
Its IC50 is 0.84 nM.

How did the IC50 turn out when COc1cc2c(c(S(=O)(=O)Nc3noc4cc(Cn5cccn5)nc(OC)c34)c1)OC(C)(C)CC2 [Example 99] was run?
Its IC50 is 2.79 nM.

For COc1ccc2c(c1S(=O)(=O)Nc1noc3cc(Cn4cccn4)nc(OC)c13)OC(C)(C)C2 [Example 100, N-(6-((1H-pyrazol-1-yl)methyl)-4-methoxyisoxazolo[4,5-c]pyridin-3-yl)-6-methoxy-2,2-dimethyl-3H-benzofuran-7-sulfonamide], which IC50 is on record?
The IC50 was 1.06 nM.

Which IC50 does the source give for COc1cc2c(cc1S(=O)(=O)Nc1noc3cc(Cn4cccn4)nc(OC)c13)OCC2(C)C [Example 101, N-(6-((1H-pyrazol-1-yl)methyl)-4-methoxyisoxazolo[4,5-c]pyridin-3-yl)-5-methoxy-3,3-dimethyl-2H-benzofuran-6-sulfonamide] here?
The IC50 was 2.04 nM.

Which IC50 does the source give for [2H]c1cc2ccc(OC)c(S(=O)(=O)Nc3noc4cc(Cn5cccn5)nc(OC)c34)c2o1 [Example 102, N-(6-((1H-pyrazol-1-yl)methyl)-4-methoxyisoxazolo[4,5-c]pyridin-3-yl)-6-methoxybenzofuran-7-sulfonamide-2-d] here?
Its IC50 is 0.83 nM.

Which IC50 does the source give for [2H]C1Oc2cc(S(=O)(=O)Nc3noc4cc(Cn5cccn5)nc(OC)c34)c(OC)cc2C1[2H] (centres unmarked) [Example 103, N-(6-((1H-pyrazol-1-yl)methyl)-4-methoxyisoxazolo[4,5-c]pyridin-3-yl)-5-methoxy-2,3-dihydrobenzofuran-6-sulfonamide-2,3-d2] here?
The IC50 was 1.86 nM.

[2H]C([2H])(c1cc2onc(NS(=O)(=O)c3cc4c(cc3OC)CCO4)c2c(OC)n1)n1cccn1 [Example 104, N-(6-((1H-pyrazol-1-yl)methyl-d2)-4-methoxyisoxazolo[4,5-c]pyridin-3-yl)-5-methoxy-2,3-dihydrobenzofuran-6-sulfonamide] was tested. Which IC50 did it give?
The IC50 was 1.77 nM.

COc1cc2c(cc1S(=O)(=O)Nc1noc3cc(Cn4cccn4)nc(OC)c13)OC(C)(C)C2 [Example 105, N-(6-((1H-pyrazol-1-yl)methyl)-4-methoxyisoxazolo[4,5-c]pyridin-3-yl)-5-methoxy-2,2-dimethyl-2,3-dihydrobenzofuran-6-sulfonamide] was tested. Which IC50 did it give?
Its IC50 is 2.18 nM.

For COc1nc(Cn2cccn2)cc2onc(NS(=O)(=O)c3cc(C4CC4)cc4c3OCCC4)c12 [Example 106, N-(6-((1H-pyrazol-1-yl)methyl)-4-methoxyisoxazolo[4,5-c]pyridin-3-yl)-6-cyclopropyl-3,4-dihydro-1H-benzopyran-8-sulfonamide], which IC50 is on record?
Its IC50 is 0.94 nM.

For COc1nc(Cn2cccn2)cc2onc(NS(=O)(=O)c3cc(C#N)cc4c3OCCC4)c12 [Example 107, N-(6-((1H-pyrazol-1-yl)methyl)-4-methoxyisoxazolo[4,5-c]pyridin-3-yl)-6-cyano-3,4-dihydro-1H-benzopyran-8-sulfonamide], which IC50 is on record?
Its IC50 is 5.86 nM.

For COc1cc2occc2cc1S(=O)(=O)Nc1noc2cc(Cn3cccn3)nc(OC)c12 [Example 108, N-(6-((1H-pyrazol-1-yl)methyl)-4-methoxyisoxazolo[4,5-c]pyridin-3-yl)-6-methoxybenzofuran-5-sulfonamide], which IC50 is on record?
Its IC50 is 1.26 nM.
